# According to patent US9458110B2, “Phenylpyrazole derivatives as potent ROCK1 and ROCK2 inhibitors” (BRISTOL-MYERS SQUIBB COMPANY, priority 2013, dated 2016):
# Assays:
# ROCK1 = ROCK1 (Homo sapiens (Human), UniProt Q13464); test: ROCK assay (Caliper LABCHIP peptide phosphorylation), ROCK1; assay type: biochemical; settings: 5 μM ATP, 1.5 μM peptide substrate;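 further: Read-out is separation of phosphorylated from unphosphorylated peptide, with kinase activity inhibition computed at every concentration of a dose-response series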
# ROCK2 = ROCK2 (Homo sapiens (Human), UniProt O75116); test: ROCK assay (Caliper LABCHIP peptide phosphorylation), ROCK2; assay type: biochemical; settings: 5 μM ATP, 1.5 μM peptide substrate;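 further: reaction stopped with EDTA, then phosphorylated and unphosphorylated peptide resolved by microfluidic electrophoresis, kinase inhibition computed at each compound concentration in dose-response series, DMSO under 2%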
# Chain of ROCK2 (O75116 whole entry, species assumed): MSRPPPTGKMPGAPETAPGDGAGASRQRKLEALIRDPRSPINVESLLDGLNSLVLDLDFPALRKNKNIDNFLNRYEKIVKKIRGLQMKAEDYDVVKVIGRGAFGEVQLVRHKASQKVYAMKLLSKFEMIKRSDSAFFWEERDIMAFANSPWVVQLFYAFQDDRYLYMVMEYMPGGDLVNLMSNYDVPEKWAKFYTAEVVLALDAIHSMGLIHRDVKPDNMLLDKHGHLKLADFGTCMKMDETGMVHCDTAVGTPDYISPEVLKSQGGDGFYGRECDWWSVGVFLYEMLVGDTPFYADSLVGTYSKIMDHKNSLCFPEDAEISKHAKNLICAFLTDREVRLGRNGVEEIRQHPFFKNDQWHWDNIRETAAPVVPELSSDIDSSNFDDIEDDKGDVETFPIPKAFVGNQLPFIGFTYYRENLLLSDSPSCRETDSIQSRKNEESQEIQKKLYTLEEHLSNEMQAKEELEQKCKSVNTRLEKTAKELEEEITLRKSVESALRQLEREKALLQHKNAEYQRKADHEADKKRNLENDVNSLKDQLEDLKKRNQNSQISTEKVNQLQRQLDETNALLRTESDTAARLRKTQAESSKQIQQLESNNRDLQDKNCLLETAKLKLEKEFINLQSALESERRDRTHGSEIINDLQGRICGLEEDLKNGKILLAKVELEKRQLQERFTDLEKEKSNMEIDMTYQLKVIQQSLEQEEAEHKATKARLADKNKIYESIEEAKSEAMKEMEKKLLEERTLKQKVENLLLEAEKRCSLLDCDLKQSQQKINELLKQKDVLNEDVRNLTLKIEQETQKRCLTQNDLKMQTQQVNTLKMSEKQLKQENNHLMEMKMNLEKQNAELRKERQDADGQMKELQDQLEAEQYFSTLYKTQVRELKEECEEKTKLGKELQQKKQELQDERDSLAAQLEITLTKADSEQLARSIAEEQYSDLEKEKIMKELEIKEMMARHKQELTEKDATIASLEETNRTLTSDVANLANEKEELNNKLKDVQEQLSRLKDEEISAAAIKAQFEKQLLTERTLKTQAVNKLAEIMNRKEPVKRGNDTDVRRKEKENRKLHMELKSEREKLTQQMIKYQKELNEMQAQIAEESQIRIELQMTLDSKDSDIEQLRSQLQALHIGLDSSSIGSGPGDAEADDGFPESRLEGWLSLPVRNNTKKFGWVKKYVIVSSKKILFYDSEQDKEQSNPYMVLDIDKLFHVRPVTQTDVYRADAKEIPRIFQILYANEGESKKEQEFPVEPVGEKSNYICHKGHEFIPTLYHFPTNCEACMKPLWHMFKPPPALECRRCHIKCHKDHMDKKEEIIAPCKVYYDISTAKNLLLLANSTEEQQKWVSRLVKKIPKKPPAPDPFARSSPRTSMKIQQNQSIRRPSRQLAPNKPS
# Chain of ROCK1 (Q13464 whole entry, species assumed): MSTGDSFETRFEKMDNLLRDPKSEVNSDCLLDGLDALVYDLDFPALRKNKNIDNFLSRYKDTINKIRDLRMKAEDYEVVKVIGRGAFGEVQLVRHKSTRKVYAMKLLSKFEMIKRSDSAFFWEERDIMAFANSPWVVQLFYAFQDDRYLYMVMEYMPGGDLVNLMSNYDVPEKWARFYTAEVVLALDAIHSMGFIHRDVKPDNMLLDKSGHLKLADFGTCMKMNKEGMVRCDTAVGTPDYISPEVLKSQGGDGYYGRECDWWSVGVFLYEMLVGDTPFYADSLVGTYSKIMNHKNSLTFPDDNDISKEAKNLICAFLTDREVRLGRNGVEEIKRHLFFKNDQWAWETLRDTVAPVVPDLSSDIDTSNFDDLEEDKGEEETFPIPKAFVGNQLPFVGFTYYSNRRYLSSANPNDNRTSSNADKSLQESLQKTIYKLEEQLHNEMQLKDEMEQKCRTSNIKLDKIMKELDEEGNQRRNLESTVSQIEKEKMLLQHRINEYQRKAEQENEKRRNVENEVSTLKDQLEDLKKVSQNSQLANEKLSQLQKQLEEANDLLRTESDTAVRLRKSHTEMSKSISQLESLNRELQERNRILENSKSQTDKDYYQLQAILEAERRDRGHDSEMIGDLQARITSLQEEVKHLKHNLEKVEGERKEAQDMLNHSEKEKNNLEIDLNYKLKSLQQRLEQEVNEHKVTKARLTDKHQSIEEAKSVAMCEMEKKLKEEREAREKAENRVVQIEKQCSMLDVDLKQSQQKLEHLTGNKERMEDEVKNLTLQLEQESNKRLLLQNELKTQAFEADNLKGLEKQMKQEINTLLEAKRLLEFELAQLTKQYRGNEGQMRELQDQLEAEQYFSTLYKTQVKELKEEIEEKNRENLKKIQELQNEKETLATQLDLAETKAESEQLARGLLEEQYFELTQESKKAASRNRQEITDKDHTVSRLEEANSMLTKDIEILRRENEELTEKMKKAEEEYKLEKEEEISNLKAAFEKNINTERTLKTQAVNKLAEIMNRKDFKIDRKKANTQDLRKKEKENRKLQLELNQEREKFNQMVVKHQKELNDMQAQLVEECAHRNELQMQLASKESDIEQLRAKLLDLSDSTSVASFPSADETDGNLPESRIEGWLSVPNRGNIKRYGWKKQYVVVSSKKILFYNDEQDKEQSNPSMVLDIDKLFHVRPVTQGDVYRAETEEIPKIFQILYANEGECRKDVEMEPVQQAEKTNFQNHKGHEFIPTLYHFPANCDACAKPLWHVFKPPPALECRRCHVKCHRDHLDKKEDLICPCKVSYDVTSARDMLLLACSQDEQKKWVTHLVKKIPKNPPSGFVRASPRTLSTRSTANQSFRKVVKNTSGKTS
IC50 (ROCK1) [nM],IC50 (ROCK2) [nM],Compound
204,104,"COc1cc(C(=O)NCc2ccccc2C(C)C)ccc1-c1cn[nH]c1 [Example 267, 3-Methoxy-N-{[2-(propan-2-yl)phenyl]methyl}-4-(1H-pyrazol-4-yl)benzamide]"
11.8,2.61,"CCNC(=O)c1cccc(CNC(=O)c2ccc(-c3cn[nH]c3)c(C)c2)c1 [Example 240, N-{[3-(ethylcarbamoyl)phenyl]methyl}-3-methyl-4-(1H-pyrazol-4-yl)benzamide]"
34.9,19.3,"COc1cc(C(=O)N[C@@H](c2c(F)cccc2F)C(O)CO)ccc1-c1cn[nH]c1 (stereo partly drawn) [Example 175, N-[(1S)-1-(2,6-difluorophenyl)-2,3-dihydroxy-propyl]-3-methoxy-4-(1H-pyrazol-4-yl)benzamide]"
3770,662,"COc1cc(C(=O)NCc2ccc3[nH]c(=O)[nH]c3c2)ccc1-c1cn[nH]c1 [Example 102, 3-methoxy-N-[(2-oxo-2,3-dihydro-1H-1,3-benzodiazol-5-yl)methyl]-4-(1H-pyrazol-4-yl)benzamide]"
0.26,0.23,"COc1cc(C(=O)NCc2cccc(C(=O)Nc3nc4c(s3)CNCC4)c2)ccc1-c1cn[nH]c1 [Example 246, 3-methoxy-4-(1H-pyrazol-4-yl)-N-{[3-({4H,5H,6H, 7H-[1,3]thiazolo[5,4-c]pyridin-2-yl}carbamoyl)phenyl]methyl} benzamide]"
11,3.51,"Cc1cc(C(=O)N[C@H](C)c2ccccc2)ccc1-c1cn[nH]c1 [Example 84, 3-Methyl-N-[(1R)-1-phenylethyl]-4-(1H-pyrazol-4-yl)benzamide]"
10,0.72,"COc1cc(C(=O)NCc2cccc(C(N)=O)c2)ccc1-c1cn[nH]c1 [Example 250, N-[(3-carbamoylphenyl)methyl]-3-methoxy-4-(1H-pyrazol-4-yl)benzamide]"
39.2,4.41,"COc1cc(C(=O)NCc2ccc(F)c(C(=O)O)c2)ccc1-c1cn[nH]c1 [Example 242, 2-fluoro-5-({[3-methoxy-4-(1H-pyrazol-4-yl)phenyl] formamido}methyl) benzoic acid]"
26.5,5.13,"COc1cc(-c2cn[nH]c2)ccc1C(=O)NC(C)c1c(F)cccc1F (stereo not drawn) [Example 226, N-[1-(2,6-difluorophenyl)ethyl]-2-methoxy-4-(1H-pyrazol-4-yl)benzamide]"
24.7,6.52,"COc1cc(-c2cn[nH]c2)ccc1C(=O)NC(c1ccccc1F)C(C)(C)O (stereo not drawn) [Example 218, N-[1-(2-fluorophenyl)-2-hydroxy-2-methylpropyl]-2-methoxy-4-(1H-pyrazol-4-yl)benzamide]"
509,409,"CC(NC(=O)c1ccc(-c2cn[nH]c2)c(C=O)c1)c1ccccc1F (stereo not drawn) [Example 276, N-[1-(2-fluorophenyl)ethyl]-3-formyl-4-(1H-pyrazol-4-yl)benzamide]"
53.7,33.4,"COc1cc(C(=O)NC[C@H](O)c2ccccc2)ccc1-c1cn[nH]c1 [Example 130, N-[(2R)-2-hydroxy-2-phenylethyl]-3-methoxy-4-(1H-pyrazol-4-yl)benzamide]"
61.4,11.5,"Cc1cc(C(=O)NCc2cccc(C(=O)O)c2)ccc1-c1cn[nH]c1 [Example 239, 3-({[3-methyl-4-(1H-pyrazol-4-yl)phenyl] formamido}methyl) benzoic acid]"
94.2,31.9,"COc1cc(C(=O)NC(CCN(C)C)c2ccccc2)ccc1-c1cn[nH]c1 (stereo not drawn) [Example 178, N-[3-(dimethylamino)-1-phenylpropyl]-3-methoxy-4-(1H-pyrazol-4-yl)benzamide]"
33.3,18.9,"COc1cccc(CNC(=O)c2ccc(-c3cn[nH]c3)c(F)c2)c1 [Example 59, 3-Fluoro-N-(3-methoxybenzyl)-4-(1H-pyrazol-4-yl)benzamide]"
52.9,15.7,"CC(O)c1cc(C(=O)NC(C)c2ccccc2F)ccc1-c1cn[nH]c1 (stereo not drawn) [Example 279, N-[1-(2-fluorophenyl)ethyl]-3-(1-hydroxyethyl)-4-(1H-pyrazol-4-yl)benzamide]"
724,130,"COc1cc(C(=O)NCc2cccc(N3CCCC3)c2)ccc1-c1cn[nH]c1 [Example 87, 3-methoxy-4-(1H-pyrazol-4-yl)-N-{[3-(pyrrolidin-1-yl)phenyl]methyl} benzamide]"
22.8,7.96,"COc1cc(C(=O)NCc2ccc(F)c(F)c2)ccc1-c1cn[nH]c1 [Example 79, N-(3,4-difluorobenzyl)-3-methoxy-4-(1H-pyrazol-4-yl)benzamide]"
16.7,3.43,"COc1cc(C(=O)NC(C)c2c(F)cccc2Cl)ccc1-c1cn[nH]c1 (stereo not drawn) [Example 221, N-[1-(2-chloro-6-fluorophenyl)ethyl]-3-methoxy-4-(1H-pyrazol-4-yl)benzamide]"
2270,1010,"COc1cc(C(=O)N[C@@H](Cc2ccc(F)cc2)C(=O)N(C)C)ccc1-c1cn[nH]c1 [Example 119, (2S)-3-(4-fluorophenyl)-2-{[3-methoxy-4-(1H-pyrazol-4-yl)phenyl] formamido}-N,N-dimethyl-propanamide]"

IC50 (ROCK1) [nM],IC50 (ROCK2) [nM],Compound
15.2,0.99,"COc1cc(C(=O)NCc2cccc(S(N)(=O)=O)c2)ccc1-c1cn[nH]c1 [Example 231, 3-methoxy-4-(1H-pyrazol-4-yl)-N-[(3-sulfamoyl-phenyl)methyl] benzamide]"
73.4,16.9,"COc1cccc(C(C)NC(=O)c2ccc(-c3cn[nH]c3)c(OC)c2)n1 (stereo not drawn) [Example 135, 3-methoxy-N-[1-(6-methoxypyridin-2-yl)ethyl]-4-(1H-pyrazol-4-yl)benzamide]"
7.36,2.13,"COc1cc(C(=O)NCc2ccccc2C)ccc1-c1cn[nH]c1 [Example 23, 3-methoxy-N-(2-methylbenzyl)-4-(1H-pyrazol-4-yl)benzamide]"
82.2,10.9,"COc1ccc(F)c(C(C)NC(=O)c2ccc(-c3cn[nH]c3)c(C(C)O)c2)c1 (stereo not drawn) [Example 316, N-[1-(2-fluoro-5-methoxyphenyl)ethyl]-3-(1-hydroxyethyl)-4-(1H-pyrazol-4-yl)benzamide]"
2440,1410,"COc1cc(C(=O)NCc2ccc(Cl)cc2S(=O)(=O)CC(C)C)ccc1-c1cn[nH]c1 [Example 37, N-(4-chloro-2-(isobutyl-sulfonyl)benzyl)-3-methoxy-4-(1H-pyrazol-4-yl)benzamide]"
94.6,52,"COc1cc(C(=O)NCCc2cccc(C(F)(F)F)c2)ccc1-c1cn[nH]c1 [Example 120, 3-methoxy-4-(1H-pyrazol-4-yl)-N-{2-[3-(trifluoro-methyl)phenyl]ethyl} benzamide]"
1.24,0.36,"COc1cc(-c2cn[nH]c2)ccc1C(=O)NCc1cccc(C(=O)NC2CCN(C)CC2)c1 [Example 249, 2-methoxy-N-({3-[(1-methylpiperidin-4-yl)carbamoyl]phenyl}methyl)-4-(1H-pyrazol-4-yl)benzamide]"
842,183,"CCC(O)c1cc(C(=O)N[C@H](C)c2ccccc2)ccc1-c1cn[nH]c1 (stereo partly drawn) [Example 284, 3-(1-hydroxypropyl)-N-[(1R)-1-phenylethyl]-4-(1H-pyrazol-4-yl)benzamide]"
22.3,34.8,"COc1cccc([C@@H](C)NC(=O)c2ccc(-c3c[nH]nc3C)cc2OCCN(C)C)c1 [Example 311, 2-[2-(dimethylamino)ethoxy]-N-[(1R)-1-(3-methoxyphenyl)ethyl]-4-(3-methyl-1H-pyrazol-4-yl)benzamide]"
147,101,"COc1cc(C(=O)NCc2ccccc2Cl)ccc1-c1c[nH]nc1C [Example 57, N-(2-Chlorobenzyl)-3-methoxy-4-(3-methyl-1H-pyrazol-4-yl)benzamide]"
11.7,2.94,"COc1cc(C(=O)NC(CO)c2ccccc2F)ccc1-c1cn[nH]c1 (stereo not drawn) [Example 162, N-[1-(2-fluorophenyl)-2-hydroxyethyl]-3-methoxy-4-(1H-pyrazol-4-yl)benzamide]"
15.6,5.16,"COc1ccc(F)c(C(C)NC(=O)c2ccc(-c3c[nH]nc3C)cc2OC)c1 (stereo not drawn) [Example 213, N-[1-(2-fluoro-5-methoxyphenyl)ethyl]-2-methoxy-4-(3-methyl-1H-pyrazol-4-yl)benzamide]"
99.3,27.6,"COc1cc(C(=O)NCc2ccc(Cl)cc2Cl)ccc1-c1cn[nH]c1 [Example 93, N-[(2,4-dichlorophenyl)methyl]-3-methoxy-4-(1H-pyrazol-4-yl)benzamide]"
16.8,3.37,"COCCOc1cc(-c2cn[nH]c2)ccc1C(=O)N[C@H](C)c1cccc(OC)c1 [Example 314, 2-(2-methoxyethoxy)-N-[(1R)-1-(3-methoxyphenyl)ethyl]-4-(1H-pyrazol-4-yl)benzamide]"
365,82.5,"COc1cc(C(=O)NCc2ccc(C#N)cc2)ccc1-c1cn[nH]c1 [Example 143, N-[(4-cyanophenyl)methyl]-3-methoxy-4-(1H-pyrazol-4-yl)benzamide]"
35.5,23.2,"COc1cc(C(=O)NCC(O)c2ccccc2Cl)ccc1-c1cn[nH]c1 (stereo not drawn) [Example 122, N-[2-(2-chlorophenyl)-2-hydroxyethyl]-3-methoxy-4-(1H-pyrazol-4-yl)benzamide]"
11.4,4,"C[C@@H](NC(=O)c1ccc(-c2cn[nH]c2)c(OC(F)F)c1)c1ccccc1 [Example 156, 3-(difluoro-methoxy)-N-[(1R)-1-phenylethyl]-4-(1H-pyrazol-4-yl)benzamide]"
34.8,14.2,"COc1cc(C(=O)NCc2ccc3c(c2)OCO3)ccc1-c1cn[nH]c1 [Example 38, N-(benzo[d] [1,3]dioxol-5-ylmethyl)-3-methoxy-4-(1H-pyrazol-4-yl)benzamide]"
104,23.8,"COc1cc(C(=O)NCc2cccnc2)ccc1-c1cn[nH]c1 [Example 19, 3-methoxy-4-(1H-pyrazol-4-yl)-N-(pyridin-3-ylmethyl) benzamide]"
